Source: patent publication US5130303A, “Drug effect-enhancing agent for antitumor drug” (Nissan Chemical Industries Ltd., priority 1988, dated 1992)
Values after ≈ are worked out from the molar mass of the structure shown.

How the values were obtained:
cancer cells = settings: literature; cited from earlier work
KB-C2 = assay: in vitro chemosensitivity test, MTT colorimetric assay with vincristine (Test Example 1, Table 1); assay type: cell-based; settings: Homo sapiens, KB-C2, 96 h, read-out: IC50 of vincristine without a sample
Procedure: MTT colorimetric assay performed in a 96-well plate was used for an in vitro chemosensitivity test. The assay is dependent on the reduction of MTT by the mitochondrial dehydrogenase of viable cells to a blue formazan product which can be measured spectrophotometrically. Equal numbers of cells (2,000 for KB-3-1 and 5,000 for KB-C2) were inoculated into each well with […] of culture medium. After overnight incubation (37° C., 5% CO2), 20 μl of vincristine solution and 0.5 μl of sample solution were added and incubated for 4 days. Then, 50 μl of MTT (1.1 mg/ml PBS) was added to each well and incubated for further 4 hours. The resulting formazan was dissolved with 100 μl of DMSO after aspiration of the culture medium. Plates were placed on a plate shaker for 5 minutes and read immediately at 570 nm. IC50 (mg/ml) with a tested sample 10 μM is given in Table 1; and IC50 of vincristine without a sample was 5,000 ng/ml.
MTT: 3-(4,5-dimethylthiazol-2-yl)-2,5-diphenyltetrazolium bromide
MEM: minimum essential medium

Row | SMILES | effect on multidrug resistance / antitumor drug effects (cancer cells) | IC50 (KB-C2) [µg/mL]
1 | COc1ccc(CCN(C)CCCC(C#N)(c2ccc(OC)c(OC)c2)C(C)C)cc1OC (stereo not shown) [Verapamil] | overcomes the multidrug resistance against antitumor drugs | 
2 | COc1ccc([C@@H]2Sc3ccccc3N(CCN(C)C)C(=O)[C@@H]2OC(C)=O)cc1 [diltiazem] | enhances the drug effects of vincristine (VCR) | 
3 | COC(=O)C1=C(C)NC(C)=C(C(=O)OCCN(C)Cc2ccccc2)C1c1cccc([N+](=O)[O-])c1 (stereo not shown) [nicardipin] | enhances the antitumor activities of vindecine sulfate | 
4 | CC[C@]1(O)C[C@H]2CN(CCc3c([nH]c4ccccc34)[C@@](C(=O)OC)(c3cc4c(cc3OC)N(C=O)[C@H]3[C@@](O)(C(=O)OC)[C@H](OC(C)=O)[C@]5(CC)C=CCN6CC[C@]43[C@@H]65)C2)C1 [vincristine] |  | 5 (≈ 6.06 µM)
